Reference: patent US6613875B1, “Cyclic peptide tube” (The Scripps Research Institute, priority 1993, dated 2003)
Square brackets hold non-standard residues; d marks the D form.

Assay: Single channel conductance, micro patch clamp on planar lipid bilayers
Type: biochemical
Details: for single channel conductance: peptide in the range of 10^−7 M in the subphase
From the text: FIG. 26 illustrates a 140 second continuous K^+ single channel conductance recording at 50 mV of the channel forming compounds indicated in FIG. 24. Open-closed transitions indicate gating mechanisms which may reflect structural flexibility or rapid assembly-disassembly of the tubular membrane channel structures. Short and long channel life times in the open state could be distinguished with values of t(short)=0.71±0.03 ms and t(long)=37.14±8.99 ms (total number of events 510) with an overall open probability P(O) of 0.29. Peptide concentration at the subphase was 1.0×10^−7 M. As is expected for any such self-assembling channel forming species, channel opening lifetimes show significant dependence on the peptide concentration. Raising the added peptide concentration in the subphase to 2.0×10^−5 M, produces open channel lifetimes of […] >30 seconds.
Formation of transmembrane channels was also inferred from its highly efficient proton transport activity. Vesicles were prepared having pH 6.5 inside and pH 5.5 in the outside bulk solution. The collapse of the imposed pH gradient in these vesicles, upon formation of the putative transmembrane channel structure, was studied by monitoring the fluorescence intensity of an entrapped pH-sensitive dye. (V.E. Carmichael et al, in J.Am. Chem. Soc. (1989), vol. 111, pages 767-769). […] Unilamellar vesicles were prepared by the reverse-phase evaporation using DPPC, OPPC, cholestrol in the ratio of 1:1:2 in a solution containing 5(6)-carboxyfluorescein (20 mM in phosphate/saline buffer: 137 mM NaCl, 2.6 mM KCl, 6.4 mM Na2HPO4, 1.4 mM KH2PO4, pH 6.5) according to the method of F. Szoka et al. in Proc. Natl. Acad. Sci. USA (1978), vol. 75, pages 4194-4198. Liposomes were then sized by multiple extrusions through Nucleopore® polycarbonate membranes (10 times, 50 psi, using 0.8 and 2×0.4 micron filter stacks) and the untrapped 5(6)-carboxyfluorescein was removed by size exclusion chromatography (Sephadex G-25 column 1×30 cm) using the same phosphate/saline buffer according to the method of F. Olson et al. in Biochim. Biophys. Acta (1979), vol. 557, pages 9-23. Vesicles formed in this way are approximately 150 nanometer in diameter as determined by electron microscopy. (R. R. C. New, Ed. Liposomes, Oxford university Press, 1990). In each experiment, 70 ml of the stock vesicle solution (3.5×10^−3 M in phospholipids) was added to pH 5.5 buffer (1.3 ml, 137 mM NaCl, 2.6 mM KCl, 6.4 Na2HPO4, 1.4 KH2PO4) and placed in a 1 cm quartz cuvett inside a stirring thermojacketed sample holder of the florescence instrument and equilibrated at 25° C. for 15 minutes with gentle stirring. To the cuvett, through an injector port, […] of the channel forming compounds in DMSO was added with continuous fluorescence monitoring at 520 nm (excitation at 470 nm). The observed data were then normalized for comparison into the fractional change in fluorescence ((I0−It)/(I0−I∞)) (V. E. Carmichael et al, in J.Am. Chem. Soc. (1989), vol. 111, pages 767-769)). […] The lipid bilayers used were formed on the tip of patch pipettes using a mixture of synthetic POPE: POPS (4:1) (1-palmitoyl-2-oleoyl-Sn-glycero-3-phosphatidylethano lamine and -serine). Five to 10 ml of the peptide solution (1.0×10^−7 or 2.0×10^−6 M in 25% DMSO in buffer solution containing 500 mM NaCl or KCl, 5 mM CaCl2, 10 mM HEPES, pH 7.5) was added to 150 ml subphase volume resulting in spontaneous partitioning of the peptide into the membrane. Ion channels formed spontaneously after peptide was added to the subphase of lipid bilayers. […] Data acquisition and analysis were performed on a Gateway 2000/486 computer using pClamp software package and TL-1 labmaster interface. Acquisition rate was 0.1 ms and data were filtered at 2 kHz.
The ultimate test in establishing and quantitating the transport efficiency of a membrane channel structure is to measure its single channel conductance using micro patch clamp techniques. […]

[1] = K^+ recording at 50 mV, peptide 1.0×10^−7 M in subphase, 510 events

Row | Substance | single channel conductance (500 mM KCl) [pS] | single channel conductance (500 mM NaCl) | actual rate of channel-mediated ion transport (K^+) | overall open probability P(O) (K^+ recording at 50 mV, peptide 1.0×10^−7 M in subphase) | channel life time in the open state, t(long) [1] [ms] | channel life time in the open state, t(short) [1] [ms] | actual rate of channel-mediated ion transport (Na^+) | rate of ion transport relative to gramicidin A under similar conditions (gramicidin A value from literature) | dependence of single channel conductance on applied voltage (measured range of 10-100 mV) | open channel lifetimes (peptide concentration in the subphase raised to 2.0×10^−5 M) [s] | ion channel activity observed (membranes with activity) (symmetrical solutions of 500 mM NaCl or KCl, 5 mM CaCl2, 10 mM HEPES, pH 7.5) | ion transport rate / efficiency (single ion channel recordings)
1 | cyclo[-(Trp-D-Leu)3-Gln-D-Leu-] (cyclo(W[dL]W[dL]W[dL]Q[dL]); SMILES CC(C)C[C@H]1NC(=O)[C@H](CCC(N)=O)NC(=O)[C@@H](CC(C)C)NC(=O)[C@H](Cc2c[nH]c3ccccc23)NC(=O)[C@@H](CC(C)C)NC(=O)[C@H](Cc2c[nH]c3ccccc23)NC(=O)[C@@H](CC(C)C)NC(=O)[C@H](Cc2c[nH]c3ccccc23)NC1=O) [eight residue ion channel forming cyclic peptide, approximately 7.5 Å pore] | ~65 | approximately 55 pS | 2.2×10^7 ion.sec^−1 | 0.29 | 37.14 ± 8.99 | 0.71 ± 0.03 | 1.8×10^7 ion.sec^−1 | three | independent of the applied voltage | > 30 | 14 out of 22 | 
2 | cyclo[-Gln-(D-Leu-Trp)4-D-Leu-] (cyclo(Q[dL]W[dL]W[dL]W[dL]W[dL]); SMILES CC(C)C[C@H]1NC(=O)[C@H](CCC(N)=O)NC(=O)[C@@H](CC(C)C)NC(=O)[C@H](Cc2c[nH]c3ccccc23)NC(=O)[C@@H](CC(C)C)NC(=O)[C@H](Cc2c[nH]c3ccccc23)NC(=O)[C@@H](CC(C)C)NC(=O)[C@H](Cc2c[nH]c3ccccc23)NC(=O)[C@@H](CC(C)C)NC(=O)[C@H](Cc2c[nH]c3ccccc23)NC1=O) [10-residue cyclic peptide forming 10 Å pores that transport glucose] |  |  |  |  |  |  |  |  |  |  |  | > 10^7 ions.sec^−1
